In series [1] the test system is Puccinia recondita f. sp. tritici. Nature of the series: Puccinia recondita f. sp. tritici / wheat / leaf disc preventative (brown rust). In kind it is in vivo. The settings on record: foliar, wheat leaf segments cv. Kanzler, inoculated 1 day after application, assessed 7-9 days after application, read-out: control of Puccinia recondita f. sp. tritici compared to untreated control. In short, it runs like this:
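Wheat leaf segments (cv. Kanzler) on water agar sprayed with compound diluted from DMSO stock in water/0.025% Tween20, then inoculated with P. recondita spores 1 day later. Incubated at 19 °C, 75% rh, 12 h light/dark. Percent disease control versus untreated assessed 7-9 days after application.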

The test system is the same in series [2]. The series can be described thus: Puccinia recondita f. sp. tritici / wheat / leaf disc curative (brown rust). The conditions noted are these: foliar, wheat leaf segments cv. Kanzler, applied 1 day after inoculation, assessed 6-8 days after application, read-out: control of Puccinia recondita f. sp. tritici compared to untreated control. In kind it is in vivo. In short, it runs like this:
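Wheat cv. Kanzler leaf segments on agar, inoculated with brown rust spores and kept dark at 19 °C, 75% rh; formulated compound sprayed 1 day after inoculation (curative). Incubated 19 °C, 75% rh, 12 h light/dark; percent disease control vs untreated scored 6–8 days after application.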

The next series concerns Phakopsora pachyrhizi. Nature of the series: Phakopsora pachyrhizi / soybean / leaf disc preventative (Asian soybean rust). The format is in vivo. The conditions noted are these: foliar, soybean leaf disks, inoculated one day after application, assessed 12-14 days after application, read-out: control of Phakopsora pachyrhizi compared to untreated control. The method in brief:
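Soybean leaf discs on water agar sprayed with formulated compound diluted in water; spore suspension sprayed on lower surface 1 day later. Kept 24-36 h dark at 20° C, 75% rh, then 12 h light/12 h dark. Percent disease control versus untreated scored 12-14 days after application.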

In series [3] the test system is Glomerella lagenarium (Colletotrichum lagenarium). The series can be described thus: Glomerella lagenarium (Colletotrichum lagenarium) liquid culture / cucumber / preventative (anthracnose). The format is cell-based. The settings on record: Colletotrichum orbiculare, liquid culture in PDB, 24° C., 3-4 days after application, read-out: control of Glomerella lagenarium compared to untreated control (inhibition of growth, photometric). The method in brief:
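Conidia from cryogenic storage mixed into potato dextrose broth and added to compound diluted from DMSO stock with 0.025% Tween20. Incubated at 24 °C; growth inhibition read photometrically 3–4 days after application, as percent antifungal activity versus untreated check.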

The next series deals with Uromyces viciae-fabae. Nature of the series: Uromyces viciae-fabae / field bean / leaf disc preventative (faba-bean rust). In kind it is in vivo. The settings on record: foliar, 288 h, 100 ppm in the applied formulation, field bean leaf discs, inoculated two hours after application, 12 days after application, read-out: disease control compared to untreated control leaf discs. The method in brief:
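Preventative test: field bean leaf discs on water agar received compound in acetone with spreader, then were spray-inoculated with rust spores on the lower surface 2 h later. Discs were kept at 22 °C, 18 h day, 70% RH, with percent disease control versus untreated assessed 12 days after application.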

For orientation: inhibition means how much of the control response was suppressed. In general, melting point refers to the temperature, or range, at which the solid turns liquid. Consider `C#CCONC(=O)c1ccc(-c2noc(C(F)(F)F)n2)cc1` [Compound 2.11, N-prop-2-ynoxy-4-[5-(trifluoromethyl)-1,2,4-oxadiazol-3-yl]benzamide], for which the melting point lay within 167 to 169 °C. Moreover, the pest or weed control at 200 ppm in series [1] is at least 80%. In series [2], the pest or weed control at 200 ppm was at least 80%. Moreover, the pest or weed control at 200 ppm in the series with Phakopsora pachyrhizi was at least 80%. The inhibition at 20 ppm in series [3] was at least 80%. Besides, the pest or weed control at 100 ppm in the series on Uromyces viciae-fabae is at least 80%.
Regarding `C=CCONC(=O)c1ccc(-c2noc(C(F)(F)F)n2)cc1` [Compound 2.12, N-allyloxy-4-[5-(trifluoromethyl)-1,2,4-oxadiazol-3-yl]benzamide], the melting point fell in the range of 134 to 135 °C. Also, the pest or weed control at 200 ppm in series [1] is at least 80%. Also, the pest or weed control at 200 ppm in series [2] was at least 80%. For the same compound, in the series with Phakopsora pachyrhizi, the pest or weed control at 200 ppm was at least 80%. The inhibition at 20 ppm in series [3] is at least 80%. Further, in the series with Uromyces viciae-fabae, the pest or weed control at 100 ppm is at least 80%.
As for `O=C(c1ccc(-c2noc(C(F)(F)F)n2)cc1)N1OC2C=CC1CC2` (stereo not drawn) [Compound 2.23, 2-oxa-3-azabicyclo[2.2.2]oct-5-en-3-yl-[4-[5-(trifluoromethyl)-1,2,4-oxadiazol-3-yl]phenyl]methanone], the melting point worked out at 89 °C. The pest or weed control at 200 ppm in series [1] is at least 80%. In series [2], the pest or weed control at 200 ppm was at least 80%. In addition, the pest or weed control at 200 ppm in the series with Phakopsora pachyrhizi is at least 80%. In series [3], the inhibition at 20 ppm is at least 80%. Also, the pest or weed control at 100 ppm in the series with Uromyces viciae-fabae is at least 80%.

Source of the values: US11154060B2, “Microbiocidal oxadiazole derivatives” (SYNGENTA PARTICIPATIONS AG, priority 2016, dated 2021).
